Square brackets hold non-standard residues; d marks the D form. Peptide text beside a SMILES is read from it. dNMeF = CN[C@H](Cc1ccccc1)C(=O)O; dAbu = CC[C@@H](N)C(=O)O
system: growth hormone release, rat pituitary cells; assay: in vitro test for the inhibition of growth hormone release in cultured rat pituitary cells; assay type: cell-based; details: multiples or fractions of the effect of somatostatin (arbitrary value 1); rat pituitary cells after 4 days in culture, 4 hours incubation, graded doses; growth hormone by radioimmunoassay
Protocol: The instant cyclic hexapeptide analogs ofsomatostatin are tested and compared with the effects of somatostatin in an in vitro test for the inhibition of growth hormone. The test is described as follows:
"Rat pituitaries" were isolated according to the procedures of Vale and Grant `In vitro Pituitary Hormone Secretion Assay for Hypophysiopic Substances` in Methods in Enzymology. Vol.XXXVII, eds. O'Malley, B. W. and Hardman, J. G. (Academic Press, Inc., New York) pp.5-93 (1975).
"After 4 days in culture, the cells were washed and incubated for 4 hours in Dulbecco-modified Eagle's medium in the presence or absence of graded doses of each analog of somatostatin. The medium was then collected for subsequent growth hormone determination by a double antibody radioimmunoassay for rat growth hormone."
The test results for some of the compounds of this invention are recorded below with the results for somatostatin listed first and given the arbitrary value of 1. The results for the instant compounds are given as multiples or fractions of the effect of somatostatin. The first of the instant compounds listed is the compound prepared in Examples 1-5. The compound is written slightly different, however, to conform to the order of the amino acids found in somatostatin.

Point of comparison: `C[C@H](O)[C@H]1NC(=O)[C@@H](Cc2ccccc2)N(C)C(=O)[C@@H](C)NC(=O)[C@@H](Cc2ccccc2)NC(=O)[C@@H](Cc2c[nH]c3ccccc23)NC(=O)[C@H](CCCCN)NC1=O` [Cyclo-(D-Ala--N--Me--D-Phe--D-Thr--L-Lys--D-Trp--D-Phe)] (cyclo(K[dW][dF][dA][dNMeF][dT])), “Growth Hormone Release Inhibition In Vitro” value 0.88. Against it:
- C[C@H](O)[C@H]1NC(=O)[C@@H](Cc2ccccc2)N(C)C(=O)[C@@H](C)NC(=O)[C@@H](Cc2ccccc2)NC(=O)[C@H](Cc2c[nH]c3ccccc23)NC(=O)[C@@H](CCCCN)NC1=O [Cyclo-(D-Ala--N--Me--D-Phe--D-Thr--D-Lys--L-Trp--D-Phe)] (cyclo(W[dF][dA][dNMeF][dT][dK])) — lower, 0.27
- CC[C@H]1NC(=O)[C@@H](Cc2ccc(O)cc2)NC(=O)[C@@H](Cc2c[nH]c3ccccc23)NC(=O)[C@H](CCCCN)NC(=O)[C@@H](C(C)C)NC(=O)[C@@H](Cc2ccccc2)N(C)C1=O [Cyclo-(D-Abu--N--Me--D-Phe--D-Val--L-Lys--D-Trp--D-Tyr)] (cyclo(K[dW][dY][dAbu][dNMeF][dV])) — higher, 2.4
- CC(C)[C@H]1NC(=O)[C@@H](Cc2ccccc2)N(C)C(=O)[C@@H](C)NC(=O)[C@@H](Cc2ccccc2)NC(=O)[C@@H](Cc2c[nH]c3ccccc23)NC(=O)[C@H](CCCCN)NC1=O [Cyclo-(D-Ala--N--Me--D-Phe--D-Val--L-Lys--D-Trp--D-Phe)] (cyclo(K[dW][dF][dA][dNMeF][dV])) — lower, 0.3

Source: patent publication US4360516A, “Modified D-retro cyclic hexapeptide somatostatin analogs” (Merck & Co., Inc., priority 1981, dated 1982)
